These results are taken from patent publication US20260232642A1, “RNA-BINDING MOLECULES WITH A SMALL CORE SCAFFOLD (R-SCORE) AND USES THEREOF” (Max-Planck-Gesellschaft zur Förderung der Wissenschaften …, priority 2022, published 2026).

The test system of one experiment is MCF-7 cells. In words: MTT assay, MCF-7. Conditions: breast cancer cell line, read-out: Cell lines IC50 [μM] MCF-7. The class given is cell-based, human. The protocol: (§1) MAD-MB-231, MCF-7 and JAR cells were cultured in Dulbecco's modified Eagle's (DMEM) medium supplemented with 10% Fetal Bovine Serum (FBS), 100 u/mL penicillin-streptomycin. Jurkat, Molt-4 and Ramos cells were cultured in Roswell Park Memorial Institute (RPMI) 1640 medium with 10% Fetal Bovine Serum (FBS), 100 u/mL penicillin-streptomycin. All cell lines grown in an incubator with humidified 5% CO2 at 37° C.
(§2) Jurkat, Molt-4 and Ramos cells were collected and seeded into 96-well plates at a density of 8000-10000 per well and treated with compounds. MCF-7, MDA-MB-231 and JAR cells were collected and seeded into 96-well plates at a density of 2000-3000 per well and cultured overnight to adherent before treat with compounds. After exposed to increasing concentrations of compounds for 72 h, the cells in each well were mixed with 20 μL of 5 mg/ml MTT (3-(4,5-dimethylthiazol-2-yl)-2,5-diphenyltetrazolium bromide) for 2 h, then add 50 μL of 20% SDS/0.01 M HCl incubated overnight, and detected the absorbance at a wavelength of 570 nm.
(§3) Inhibition rate was calculated using the equation: […]
(§4) The IC50 values were calculated by using GraphPad Prism 9 software fitting to a dose-response inhibition equation.
On the technique in general: Tetrazolium dyes change colour on reduction, which living cells bring about.

In another experiment the test system is Jurkat cells. In words: MTT assay, Jurkat. Conditions: 72 h, acute leukemia cell line, read-out: Cell lines IC50 [μM] Jurkat. The class given is cell-based, human. How it is done:
as §1, §2, §3, §4

Another experiment deals with JAR cells. The experiment in a line: MTT assay, JAR. In kind it is cell-based, human. Conditions: 72 h, choriocarcinoma cell line, read-out: Cell lines IC50 [μM] JAR. The protocol: as §1, §2, §3, §4
A further experiment relates to Molt-4 cells. The experiment in a line: MTT assay, Molt-4. The class given is cell-based, human. The note with it: acute leukemia cell line, read-out: Cell lines IC50 [μM] Molt-4. How it is done: as §1, §2, §3, §4
The subject of experiment [1] is MDA-MB-231 cells. The experiment in a line: MTT assay, MDA-MB-231. The note with it: breast cancer cell line, read-out: Cell lines IC50 [μM] MDA-MB-231. In kind it is cell-based, human. The protocol: as §1, §2, §3, §4
Experiment [2] has as its system precursor microRNA-21 hairpin (pre-miR-21 hp). In words: Differential scanning fluorimetry (DSF), pre-miR-21 hairpin. The class given is binding. Conditions: 60 uM compound, 1 μM hairpin in PBS, Tm of compound minus Tm of DMSO control. How it is done: (§5) To measure the binding between compounds and precursor microRNA-21 hairpin (pre-miR-21 hp) or precursor microRNA-17 hairpin (pre-miR-17 hp), DSF was performed as previously described with modification (ACS Chem. Biol. 2017, 12, 2, 435-443). Precursor microRNA hairpin was dissolved in PBS and annealed by briefly heating to 95° C. for 3 min and slowly cooling to rt. Assay was performed in duplicates using white qPCR 8-strips (VWR) with a total volume of 10 μL in PBS. The total reaction consisted of 1 μM precursor microRNA hairpin, 1% test compound (DMSO dilution) and 2×SYBR GreenII (Thermo Fisher Scientific). Compounds were incubated with precursor microRNA hairpin at for 10 min at rt, then SYBR GreenII was added to each well, mixed and incubated 10 min at rt. The strips were spined and loaded to the RT-PCR detection system (BIO-RAD CFX Connect), the fluorescence intensity was obtained every 1° C. for 30 s in the range of 20° C. to 80° C.
(§6) The melting temperature (Tm) was determined by the maximum of the negative of the first derivative of the fluorescence vs temperature melting curves. The ΔTm was calculated by the Tm value of compound subtract the Tm value of the DMSO control.

Another experiment relates to Ramos cells. The experiment in a line: MTT assay, Ramos. In kind it is cell-based, human. Conditions: 72 h, Burkitt lymphoma cell line, read-out: Cell lines IC50 [μM] Ramos. The protocol:
as §1, §2, §3, §4

For experiment [3], the system named is MDA-MB-231 cells. In words: Colony formation assay. The class given is cell-based, human. The note with it: for antiproliferation activity against MDA-MB-231 cell line: 6 days, crystal violet, vs DMSO; for antiproliferation activity compared to other selected compounds: MDA-MB-231, ranking among A10, A11, B2, B5, B8, B9; for inhibition of MDA-MB-231 cell proliferation at 10 μM: concentration of 10 μM. How it is done: as §1
MDA-MB-231 cells were collected and seeded into 24-well plates with the density of 1000 cells per well and cultured overnight. The medium was exchanged and supplemented with different compounds and concentrations every three days. 6 days later, cells were washed with PBS and fixed by 4% paraformaldehyde solution. After 15 min fix, the paraformaldehyde solution was washed with PBS and was then stained with 0.1% (w/v) crystal violet. After 15 min, the cells were washed and photographed.

Experiment [4] deals with precursor microRNA-17 hairpin (pre-miR-17 hp). In words: Differential scanning fluorimetry (DSF), pre-miR-17 hairpin. In kind it is binding. Conditions: 60 uM compound, 1 μM hairpin in PBS, Tm of compound minus Tm of DMSO control. How it is done:
as §5, §6

“Also recorded” adds a separate entry of the source. Read-outs that look alike come from different tables or passages of the source.

On to `C=CCN1C(C#N)C(c2ccc(-c3ccc(C(F)(F)F)cc3)cc2)C1Cn1cc(-c2ccccn2)nn1` (stereo not shown) [Compound A10, 1-allyl-4-((4-(pyridin-2-yl)-1H-1,2,3-triazol-1-yl)methyl)-3-(4′-(trifluoromethyl)-[1,1′-biphenyl]-4-yl) azetidine-2-carbonitrile], for which the IC50 – broadly, the concentration at which inhibition is half-maximal – with MCF-7 cells (Homo sapiens, MCF7, 72 h) was above 20 µM; in the experiment with Jurkat cells (Homo sapiens, Jurkat), 7.51 µM; in the experiment on JAR cells (Homo sapiens) it was above 20 µM; in the experiment with Molt-4 cells (Homo sapiens, MOLT-4, 72 h), 1.6 µM; in the experiment on MDA-MB-231 cells [1] (Homo sapiens, MDA-MB-231, 72 h), above 20 µM; in the experiment on Ramos cells (Homo sapiens, Ramos), 8.87 µM. The “ΔTm (pre-miR-21 hp) @60 uM [° C.]” value in experiment [2] came to 0 °C. In the experiment on MDA-MB-231 cells [3], the “antiproliferation activity against MDA-MB-231 cell line” value is given as “can inhibit MDA-MB-231 cells proliferation; also recorded: exhibited antiproliferation activity against MDA-MB-231 cell line in a dose-dependent manner”. For the same molecule, the “ΔTm (pre-miR-17 hp) @60 uM [° C.]” value in experiment [4] turned out to be 0 °C.
As for `CNc1nc(N2CC(c3ccc(-c4c(C)noc4C)cc3)C2C#N)nc2ccccc12` (stereo not shown) [Compound B2, 3-(4-(3,5-dimethylisoxazol-4-yl)phenyl)-1-(4-(methylamino)quinazolin-2-yl) azetidine-2-carbonitrile], the IC50 with Jurkat cells came to 4.49 µM. In addition, in the experiment on Molt-4 cells (72 h), the IC50 is 4.67 µM. In addition, the IC50 in the experiment with Ramos cells came out at 3.03 µM. Besides, in the experiment on MDA-MB-231 cells [3], the “antiproliferation activity against MDA-MB-231 cell line” value is “can inhibit MDA-MB-231 cells proliferation; also recorded: exhibited antiproliferation activity against MDA-MB-231 cell line in a dose-dependent manner”, the “antiproliferation activity compared to other selected compounds” value was “better antiproliferation ability; also recorded: most potent antiproliferation activity” and the “inhibition of MDA-MB-231 cell proliferation at 10 μM” value is on record as “fully inhibited”.
Take `CNc1nc(N2CC(c3ccc(-c4ccc5nc[nH]c5c4)cc3)C2C#N)nc2ccccc12` (stereo not shown) [Compound B9, 3-(4-(1H-benzo[d]imidazol-6-yl)phenyl)-1-(4-(methylamino)quinazolin-2-yl) azetidine-2-carbonitrile]: the IC50 with MCF-7 cells (72 h) worked out at 1.78 µM; with Jurkat cells, 3.17 µM; with JAR cells, 1.82 µM; in the experiment on Molt-4 cells (72 h), 4.14 µM; with MDA-MB-231 cells [1] (72 h), 4.12 µM; in the experiment on Ramos cells, 5.54 µM. Moreover, the “ΔTm (pre-miR-21 hp) @60 uM [° C.]” value in experiment [2] was −1 °C. Besides, the “antiproliferation activity against MDA-MB-231 cell line” value in the experiment on MDA-MB-231 cells [3] is given as “can inhibit MDA-MB-231 cells proliferation; also recorded: exhibited antiproliferation activity against MDA-MB-231 cell line in a dose-dependent manner”. For the same molecule, the “ΔTm (pre-miR-17 hp) @60 uM [° C.]” value in experiment [4] was −1 °C.
Take `CNc1nc(N2CC(c3ccc(-c4ccc(C(F)(F)F)cc4)cc3)C2C#N)nc2ccccc12` (stereo not shown) [Compound B5, 1-(4-(methylamino)quinazolin-2-yl)-3-(4′-(trifluoromethyl)-[1,1′-biphenyl]-4-yl) azetidine-2-carbonitrile]: the concentration for half-maximal inhibition (IC50) in the experiment with MCF-7 cells (Homo sapiens, MCF7, 72 h) was 5.61 µM; in the experiment on Jurkat cells (Homo sapiens, Jurkat) it was 5.9 µM; in the experiment on JAR cells (Homo sapiens), 1.44 µM; in the experiment on Molt-4 cells (Homo sapiens, MOLT-4, 72 h), 8.42 µM; with MDA-MB-231 cells [1] (Homo sapiens, MDA-MB-231, 72 h), 6.95 µM; with Ramos cells (Homo sapiens, Ramos) it was 2.8 µM. The “ΔTm (pre-miR-21 hp) @60 uM [° C.]” value in experiment [2] worked out at 0 °C. Besides, in the experiment with MDA-MB-231 cells [3], the “antiproliferation activity against MDA-MB-231 cell line” value was “can inhibit MDA-MB-231 cells proliferation; also recorded: exhibited antiproliferation activity against MDA-MB-231 cell line in a dose-dependent manner”. The “antiproliferation activity compared to other selected compounds” value in the experiment on MDA-MB-231 cells [3] was “most potent antiproliferation activity”. The “inhibition of MDA-MB-231 cell proliferation at 10 μM” value with MDA-MB-231 cells [3] is “fully inhibited”. The “ΔTm (pre-miR-17 hp) @60 uM [° C.]” value in [4] was found to be 0 °C.
Turning to `Cc1noc(C)c1-c1ccc(C2CN(C(=O)c3sc4ncccc4c3N)C2C#N)cc1` (stereo not shown) [Compound B4, 1-(3-aminothieno[2,3-b]pyridine-2-carbonyl)-3-(4-(3,5-dimethylisoxazol-4-yl)phenyl) azetidine-2-carbonitrile], the IC50 in the experiment with MCF-7 cells (72 h) is 12.5 µM; in the experiment on Jurkat cells (Homo sapiens, Jurkat), 7.3 µM; with JAR cells, 5.92 µM; in the experiment on Molt-4 cells (Homo sapiens, MOLT-4, 72 h), 10.6 µM; in the experiment on MDA-MB-231 cells [1] (Homo sapiens, MDA-MB-231, 72 h), above 20 µM; with Ramos cells (Homo sapiens, Ramos) it was 12.4 µM. In [2], the “ΔTm (pre-miR-21 hp) @60 uM [° C.]” value was determined as 0 °C. In addition, the “ΔTm (pre-miR-17 hp) @60 uM [° C.]” value in experiment [4] is 0 °C.
